The values that follow come from ChEMBL document CHEMBL1166002, “Vanchrobactin and anguibactin siderophores produced by Vibrio sp. DS40M4” (J Nat Prod, 2010).

This experiment deals with PC-3. As to the kind of experiment: Cytotoxicity against human PC3 cells by MTT assay. It is filed as functional, cell-based. In general terms: Tetrazolium dyes change colour on reduction, which living cells bring about.

As to `N=C(N)NCCC[C@@H](NC(=O)c1cccc(O)c1O)C(=O)N[C@@H](CO)C(=O)O` [VANCHROBACTIN], the IC50 result was “Not Active”.
In the case of `N=C(N)NCCC[C@@H](NC(=O)c1cccc(O)c1O)C(=O)N[C@@H](COC(=O)[C@H](COC(=O)[C@H](CO)NC(=O)[C@@H](CCCNC(=N)N)NC(=O)c1cccc(O)c1O)NC(=O)[C@@H](CCCNC(=N)N)NC(=O)c1cccc(O)c1O)C(=O)O` [TRIVANCHROBACTIN], the IC50 result was “Not Active”.
`N=C(N)NCCC[C@@H](NC(=O)c1cccc(O)c1O)C(=O)N[C@@H](COC(=O)[C@H](CO)NC(=O)[C@@H](CCCNC(=N)N)NC(=O)c1cccc(O)c1O)C(=O)O` [DIVANCHROBACTIN]: the IC50 entry is “Not Active”.
